Experimental data reported in patent US20120046273A1, “COMPOUNDS AND COMPOSITIONS FOR COGNITION-ENHANCEMENT, METHODS OF MAKING, AND METHODS OF TREATING” (MITHRIDION, INC., priority 2009, published 2012).

What was measured:
in vivo = conditions: rat, po
[1] = test system: A-beta 1-40 and A-beta 1-42; assay: A-beta in hippocampal microdialysate; format: in vivo, Tg-2576 transgenic mice; conditions: Tg-2576 mice
Text: These mice have high concentrations of A-beta in their brain tissue, thought to be the cause of neuron death in Alzheimer's disease, and accumulate amyloid plaques, recapitulating one of the hallmark pathological features of Alzheimer's disease.

[2] = test system: hippocampal inositol phosphate signaling pathway; assay: In vivo tissue inositol phosphate signaling pathway activation, hippocampus; design: species or system rat; conditions: normal rats, dose-dependent in the dose range 0.03 mg/kg to at least 3 mg/kg
Protocol: Experimental compounds or drug substances were administered using standard techniques to Long Evans Hooded rats weighing 225 to 350 grams, and which had been pretreated with a subcutaneous injection of lithium chloride at a suitable dose between 3 and 10 mmoles per kg. At suitable times the animals were briefly anesthetized using 5% isoflurane and euthanized by decapitation. The brains and submaxillary salivary glands were rapidly dissected out, and the hippocampuses were dissected from the brains. The dissected tissues were homogenized in a suitable volume of ice-cold phosphate-buffered saline containing 10 mM lithium chloride, pH7.4, using a tissue homogenizer, and used immediately or frozen in aliquots at −80degC. for future use. The concentration of inositol-1-phosphate was determined in the homogenates using the IPOne TR-FRET assay (CisBio cat no 621PAPEB), following the manufacturer's instruction

[3] = test system: pooled male human liver microsomes; assay: Metabolism by human liver microsomes; format: in vitro ADME; conditions: 6 hours incubation
Protocol: Compounds were incubated with pooled male human liver microsomes (BD Biosciences, #452172) and an NADP-regenerating system in a phosphate buffer (pH 7.4) for a total of 6 hours. Aliquots were removed every 2 hours, and 1% formic acid was added to halt the reaction. Samples were centrifuged, filtered through 0.2 micron spinfilter and the amount of each compound in the supernatants was quantitated using LC/MS/MS.

Cc1noc(C2CCCNC2)n1 (racemic) [Compound 82, 3-Methyl-5-(piperidin-3-yl)-1,2,4-oxadiazole]
Kp at 1 hour (in vivo): 2.38
reduction of the concentration of A-beta 1-40 [1]: approximately 40%
reduction of the concentration of A-beta 1-42 [1]: approximately 40%
hippocampal IP response [2]: causes an increase in the hippocampal IP response
extent of metabolism in human liver microsomes [3]: metabolized significantly less in human liver microsomes than in rat liver microsomes
